Experimental findings from ChEMBL document CHEMBL1153244, “Tetrasubstituted pyridines as potent and selective AKT inhibitors: Reduced CYP450 and hERG inhibition of aminopyridines” (Bioorg Med Chem Lett, 2010) are described below.

The subject of data set [1] is BT-474. The experiment in a line: Antiproliferative activity against human BT474 cells. In kind it is functional, cell-based.
The target in data set [2] is Cytochrome P450 3A4 (Homo sapiens, UniProt P08684). The experiment in a line: Inhibition of CYP3A4. In kind it is ADME.
Data set [3] has as its target RAC-alpha serine/threonine-protein kinase (Homo sapiens, UniProt P31749). In words: Inhibition of human AKT1.
The target in data set [4] is RAC-beta serine/threonine-protein kinase (Homo sapiens, UniProt P31751). In words: Inhibition of human AKT2.
In data set [5] the target is RAC-gamma serine/threonine-protein kinase (Homo sapiens, UniProt Q9Y243). The experiment in a line: Inhibition of human AKT3.
The subject of data set [6] is Mus musculus. In words: Dose normalized AUC (0 to t) in mouse at 2.2 mg, iv. In kind it is ADME, organism-based. To be noted: in vivo.
Data set [7] can be described thus: Clearance in mouse at 2.2 mg, iv. In kind it is ADME, organism-based. To be noted: in vivo.
For data set [8], the system named is Rattus norvegicus. The experiment in a line: Dose normalized AUC (0 to t) in rat at 2.4 mg, iv. In kind it is ADME, organism-based. To be noted: in vivo.
Data set [9] can be described thus: Clearance in rat at 2.4 mg, iv. In kind it is ADME, organism-based. Particulars: in vivo.
The subject of data set [10] is Canis familiaris. The experiment in a line: Dose normalized AUC (0 to t) in dog at 3.1 mg, iv. In kind it is ADME, organism-based, Canis lupus familiaris. To be noted: in vivo.
Data set [11] in a line: Clearance in dog at 3.1 mg, iv. To be noted: in vivo. In kind it is ADME, organism-based, Canis lupus familiaris.
For data set [12], the system named is Rhesus monkey. The experiment in a line: Dose normalized AUC (0 to t) in monkey at 3.0 mg, iv. In kind it is ADME, organism-based, Macaca mulatta. Particulars: in vivo.
A short description of data set [13]: Clearance in monkey at 3.0 mg, iv. In kind it is ADME, organism-based, Macaca mulatta. To be noted: rhesus monkey, in vivo.
The target in data set [14] is T1, Voltage-gated inwardly rectifying potassium channel KCNH2 (Homo sapiens, UniProt Q12809). In words: Inhibition of human ERG.
In data set [15] the target is T1, Voltage-gated inwardly rectifying potassium channel KCNH2. The experiment in a line: Inhibition of human ERG relative to control.
Data set [16] relates to Mus musculus. In words: Antitumor activity against human BT474 cells xenografted in ip dosed mouse assessed as inhibition of tumor growth. Particulars: BT-474. (Xenograft models place foreign cells or tissue in a host animal.)
Data set [17] concerns Mus musculus. The experiment in a line: Antitumor activity against human BT474 cells xenografted in mouse assessed as reduction in tumor volume at 30 mg/kg, ip. Also noted: scale not given: the % may be the effect or the level left. To be noted: route intraperitoneal.
Data set [18] has as its system Mus musculus. In words: Dose normalized AUC (0 to t) in mouse at 9.6 mg, ip. In kind it is ADME, organism-based. To be noted: in vivo.
For data set [19], the system named is Rattus norvegicus. The experiment in a line: Dose normalized AUC (0 to t) in rat at 10.6 mg, iv. In kind it is ADME, organism-based. To be noted: in vivo.
Data set [20] can be described thus: Clearance in rat at 10.6 mg, iv. In kind it is ADME, organism-based. To be noted: in vivo.
Data set [21] deals with Canis familiaris. In words: Dose normalized AUC (0 to t) in dog at 2.4 mg, iv. In kind it is ADME, organism-based, Canis lupus familiaris. To be noted: in vivo.
A short description of data set [22]: Clearance in dog at 2.4 mg, iv. In kind it is ADME, organism-based, Canis lupus familiaris. Particulars: in vivo.
Data set [23] deals with Rhesus monkey. In words: Dose normalized AUC (0 to t) in monkey at 3.1 mg, iv. Particulars: in vivo. In kind it is ADME, organism-based, Macaca mulatta.
Data set [24] is described as follows: Clearance in monkey at 3.1 mg, iv. In kind it is ADME, organism-based, Macaca mulatta. Particulars: rhesus monkey, in vivo.

Some results are limits rather than exact numbers.

RAC-beta serine/threonine-protein kinase, sequence (P31751 whole entry): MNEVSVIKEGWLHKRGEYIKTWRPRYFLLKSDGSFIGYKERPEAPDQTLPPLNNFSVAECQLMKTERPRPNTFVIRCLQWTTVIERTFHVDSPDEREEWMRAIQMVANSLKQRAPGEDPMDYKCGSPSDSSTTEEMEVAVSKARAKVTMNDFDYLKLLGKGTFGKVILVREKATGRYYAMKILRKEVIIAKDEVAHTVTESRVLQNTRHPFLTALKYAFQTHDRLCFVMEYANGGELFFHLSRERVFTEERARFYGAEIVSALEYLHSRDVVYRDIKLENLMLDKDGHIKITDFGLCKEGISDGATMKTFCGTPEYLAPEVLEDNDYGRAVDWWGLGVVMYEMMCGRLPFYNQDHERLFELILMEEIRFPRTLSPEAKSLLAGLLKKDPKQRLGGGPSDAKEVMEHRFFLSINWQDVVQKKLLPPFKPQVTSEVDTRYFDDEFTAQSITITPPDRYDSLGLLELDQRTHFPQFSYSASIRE
Cytochrome P450 3A4, sequence (P08684 whole entry): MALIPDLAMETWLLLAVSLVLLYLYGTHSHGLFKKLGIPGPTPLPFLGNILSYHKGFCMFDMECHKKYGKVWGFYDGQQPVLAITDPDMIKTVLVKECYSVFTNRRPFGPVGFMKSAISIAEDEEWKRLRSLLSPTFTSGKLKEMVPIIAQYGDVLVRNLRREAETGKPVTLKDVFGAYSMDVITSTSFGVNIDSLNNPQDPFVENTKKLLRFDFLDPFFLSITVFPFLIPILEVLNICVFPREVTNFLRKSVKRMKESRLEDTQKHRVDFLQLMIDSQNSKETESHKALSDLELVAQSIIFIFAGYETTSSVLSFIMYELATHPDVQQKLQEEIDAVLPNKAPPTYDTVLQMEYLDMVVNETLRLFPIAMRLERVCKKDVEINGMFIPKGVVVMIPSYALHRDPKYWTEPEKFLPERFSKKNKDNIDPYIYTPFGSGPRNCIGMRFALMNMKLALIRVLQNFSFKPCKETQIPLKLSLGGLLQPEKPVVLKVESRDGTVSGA
T1 sequence (Q12809 whole entry): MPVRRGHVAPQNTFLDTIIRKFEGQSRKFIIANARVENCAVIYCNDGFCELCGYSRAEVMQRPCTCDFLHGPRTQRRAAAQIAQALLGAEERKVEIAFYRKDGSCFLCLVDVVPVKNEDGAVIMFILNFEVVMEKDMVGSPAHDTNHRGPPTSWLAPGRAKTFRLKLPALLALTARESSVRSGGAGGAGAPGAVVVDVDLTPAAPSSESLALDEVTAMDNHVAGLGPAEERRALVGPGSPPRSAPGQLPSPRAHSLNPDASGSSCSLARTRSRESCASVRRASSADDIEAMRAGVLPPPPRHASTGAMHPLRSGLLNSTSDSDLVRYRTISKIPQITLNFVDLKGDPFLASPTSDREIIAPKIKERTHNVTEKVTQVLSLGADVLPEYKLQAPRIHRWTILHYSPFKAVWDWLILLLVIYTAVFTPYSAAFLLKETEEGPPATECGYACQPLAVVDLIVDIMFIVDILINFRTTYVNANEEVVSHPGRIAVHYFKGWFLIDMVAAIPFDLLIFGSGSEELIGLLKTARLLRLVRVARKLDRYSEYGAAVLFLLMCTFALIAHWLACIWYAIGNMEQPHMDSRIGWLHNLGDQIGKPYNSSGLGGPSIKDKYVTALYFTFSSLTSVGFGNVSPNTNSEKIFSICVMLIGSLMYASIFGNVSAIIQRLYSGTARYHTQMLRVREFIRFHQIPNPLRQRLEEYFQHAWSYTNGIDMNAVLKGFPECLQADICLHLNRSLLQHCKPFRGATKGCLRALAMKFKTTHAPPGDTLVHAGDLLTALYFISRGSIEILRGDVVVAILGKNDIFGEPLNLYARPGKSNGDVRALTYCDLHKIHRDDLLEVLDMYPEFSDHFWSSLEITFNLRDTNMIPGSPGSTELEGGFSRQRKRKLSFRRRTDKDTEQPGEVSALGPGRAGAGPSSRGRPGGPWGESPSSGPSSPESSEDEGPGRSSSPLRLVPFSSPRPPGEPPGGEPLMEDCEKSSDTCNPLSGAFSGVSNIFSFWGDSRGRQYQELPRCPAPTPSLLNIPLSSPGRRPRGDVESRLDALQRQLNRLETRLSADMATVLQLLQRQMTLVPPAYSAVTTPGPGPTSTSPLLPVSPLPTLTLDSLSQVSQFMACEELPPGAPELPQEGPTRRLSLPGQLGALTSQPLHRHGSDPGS
RAC-gamma serine/threonine-protein kinase, sequence (Q9Y243 whole entry): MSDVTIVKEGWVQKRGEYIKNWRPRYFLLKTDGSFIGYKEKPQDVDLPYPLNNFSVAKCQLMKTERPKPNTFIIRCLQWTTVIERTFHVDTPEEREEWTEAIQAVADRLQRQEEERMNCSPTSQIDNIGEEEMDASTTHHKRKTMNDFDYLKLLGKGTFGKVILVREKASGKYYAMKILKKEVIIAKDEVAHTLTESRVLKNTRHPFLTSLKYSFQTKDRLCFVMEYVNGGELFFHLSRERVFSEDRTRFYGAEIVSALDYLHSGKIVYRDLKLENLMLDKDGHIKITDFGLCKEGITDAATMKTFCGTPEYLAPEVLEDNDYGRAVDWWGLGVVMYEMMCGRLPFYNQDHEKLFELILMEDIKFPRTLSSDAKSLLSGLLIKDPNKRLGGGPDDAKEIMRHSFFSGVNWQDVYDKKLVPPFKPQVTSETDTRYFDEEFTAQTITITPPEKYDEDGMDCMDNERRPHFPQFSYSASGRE
RAC-alpha serine/threonine-protein kinase, sequence (P31749 whole entry): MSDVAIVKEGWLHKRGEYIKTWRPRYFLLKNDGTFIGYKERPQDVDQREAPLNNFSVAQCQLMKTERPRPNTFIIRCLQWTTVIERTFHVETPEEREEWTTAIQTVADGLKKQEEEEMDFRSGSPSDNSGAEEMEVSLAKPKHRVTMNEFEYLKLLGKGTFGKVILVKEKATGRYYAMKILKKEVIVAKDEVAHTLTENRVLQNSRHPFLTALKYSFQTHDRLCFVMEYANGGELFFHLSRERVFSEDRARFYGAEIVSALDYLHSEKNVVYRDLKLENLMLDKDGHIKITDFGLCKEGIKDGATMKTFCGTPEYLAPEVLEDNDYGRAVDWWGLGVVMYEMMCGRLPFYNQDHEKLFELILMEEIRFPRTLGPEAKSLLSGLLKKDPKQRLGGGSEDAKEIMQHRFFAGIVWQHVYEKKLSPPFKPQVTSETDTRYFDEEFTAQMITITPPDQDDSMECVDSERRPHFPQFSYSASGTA

One may read the IC50 as the midpoint of a concentration-inhibition curve. As for `CCNc1nc(-c2ccoc2)c(-c2cnc3[nH]nc(C)c3n2)cc1OC[C@@H](N)Cc1ccccc1`, the IC50 came to 3900 nM in [1]; 5000 nM in [2]; 500 nM in data set [3]; 6300 nM in data set [4]; 500 nM in data set [5].
As for `Cc1occc1-c1nc(N)c(OC[C@@H](N)Cc2c[nH]c3ccccc23)cc1-c1ccc2[nH]nc(C)c2c1`, the half-maximal inhibitory concentration (IC50) came to 200 nM in data set [1]; 100 nM in data set [2]; 3 nM in data set [3]; 15 nM in data set [4]; 1 nM in data set [5].
Broadly, the clearance is a measure of how efficiently the substance is removed, as volume per time. In the case of `Cc1occc1-c1nc(N)c(OC[C@@H](N)Cc2c[nH]c3ccccc23)cc1-c1cnc2[nH]nc(C)c2n1`, the IC50 in [1] was determined as 310 nM; in data set [2] it was 5000 nM; in [14], 10.4 µM; in [3] it was 1 nM; in data set [4], 19 nM; in data set [5], 2 nM. The AUC stood at 170 ng·h/mL/mg in data set [6], 303 ng·h/mL/mg in data set [8], 630 ng·h/mL/mg in data set [10] and 853 ng·h/mL/mg in data set [12]. Further, the clearance in [7] was 98.9 mL/min/kg; in [9], 46 mL/min/kg; in [11] it was 25.3 mL/min/kg; in data set [13], 22.3 mL/min/kg. For the same compound, the “inhibition (INH)” value in data set [15] amounted to 95%. For the same compound, the Activity result is “Dose-dependent effect” in data set [16] and 59% in data set [17].
On to `Cc1occc1-c1nc(N)c(OC[C@@H](N)Cc2c[nH]c3ccccc23)cc1-c1cc2c(C)n[nH]c2cn1`, for which the IC50 in [1] stood at 300 nM; in data set [2] it was 1300 nM; in data set [3], 1 nM; in [4], 13 nM; in data set [5], 3 nM.
Turning to `Cc1occc1-c1nc(N)c(OC[C@@H](N)Cc2c(C#N)[nH]c3ccccc23)cc1-c1cnc2[nH]nc(C)c2n1`, the IC50 in data set [1] was 2800 nM; in data set [2], 1600 nM; in data set [3] it was 1 nM; in [4] it was 7 nM; in data set [5] it was 1 nM.
Take `Cc1occc1-c1nc(N)c(OC[C@@H](N)Cc2c(C(N)=O)[nH]c3ccccc23)cc1-c1cnc2[nH]nc(C)c2n1`: the IC50 in [1] is over 10000 nM; in data set [3] it was 1 nM; in data set [4] it was 15 nM; in [5], 1 nM.
Turning to `Cc1n[nH]c2ncc(-c3cc(OC[C@@H](N)Cc4c[nH]c5ccccc45)cnc3-c3ccoc3)nc12`, the AUC in data set [18] worked out at 96 ng·h/mL/mg; in data set [19], 301 ng·h/mL/mg; in data set [21], 425 ng·h/mL/mg; in [23], 386 ng·h/mL/mg. Further, the clearance in [20] was 53.2 mL/min/kg; in data set [22] it was 34.4 mL/min/kg; in [24], 39.1 mL/min/kg.
As to `Cc1nc(-c2ccoc2)c(-c2cnc3[nH]nc(C)c3n2)cc1OC[C@@H](N)Cc1c[nH]c2ccccc12`, the IC50 in data set [1] was found to be 1260 nM; in data set [2] it was 630 nM; in [3], 3 nM; in [4], 63 nM; in data set [5], 10 nM.
With `Cc1occc1-c1ncc(OC[C@@H](N)Cc2c[nH]c3ccccc23)cc1-c1cnc2[nH]nc(C)c2n1`, the IC50 amounted to 290 nM in data set [1], 630 nM in data set [2], 1 nM in [3] and 25 nM in data set [4]. Moreover, the “inhibition (INH)” value in data set [15] is recorded as 83.4%.
Consider `Cc1occc1-c1nc(N)c(OC[C@@H](N)Cc2ccccc2)cc1-c1cnc2[nH]nc(C)c2n1`, for which the IC50 is 580 nM in data set [1]; 3200 nM in data set [2]; 6 nM in [3]; 130 nM in data set [4]; 6 nM in data set [5].
With `Cc1occc1-c1nc(N)c(OC[C@@H](N)Cc2c(Cl)[nH]c3ccccc23)cc1-c1cnc2[nH]nc(C)c2n1`, the IC50 is 150 nM in [1]; 500 nM in data set [2]; 1 nM in [3]; 12 nM in data set [4]; 2 nM in data set [5].
Take `Cc1n[nH]c2ncc(-c3cc(OC[C@@H](N)Cc4c[nH]c5ccccc45)c(C#N)nc3-c3ccoc3)nc12`: the IC50 in data set [2] turned out to be 790 nM; in data set [3], 10 nM; in [4], 250 nM; in data set [5], 19 nM.
With `Cc1occc1-c1nc(N)c(OC[C@@H](N)Cc2c[nH]c3ccccc23)cc1-c1cnc2[nH]nc(C)c2c1`, the IC50 in [1] is 470 nM; in [2], 1000 nM; in data set [3], 1 nM; in data set [4] it was 15 nM; in [5], 2 nM.
